Experimental data taken from patent US20260232818A1, “PHARMACEUTICAL COMPOSITIONS COMPRISING PROTEIN COMPLEXES” (Onchilles Pharma, Inc., priority 2023, published 2026).

What was measured:
[1] = system: human ovarian cancer cells; test: Selective cancer cell-killing in ovarian cancer patient samples, cancer cells; assay type: cell-based; conditions: 24 hours; Calcein-AM; FIG. 9B
Description: Evaluating selective cancer cell-killing in ovarian cancer patient samples. Cancer and non-cancer cells were isolated from primary tumors, intraperitoneal (IP) fluid, omental adipose tissue (common metastatic site), and blood from 6 ovarian cancer patients. The following cells were isolated and tested: cancer cells (digested tumor with depletion of fibroblasts, CD45+ cells, and […] cells), non-cancer immune cells (digested omental cells with depletion of neutrophils or CD45+ cells from tumor tissue), peripheral blood mononuclear cells (PBMCs; B cells, T cells, monocytes, and NK cells), fibroblasts (isolated from tumor samples using fibroblast isolation kit), and IP cells (composed of >90% CD45+ immune cells, including B, T, myeloid, NK cells). Isolated cells were plated and exposed to A2M:MutF, doxorubicin (standard of care chemotherapy), or oxaliplatin (standard of care chemotherapy) for 24 hours. Cell viability was assessed by Calcein-AM.

[2] = Plasma Protection Assay (MutF activity on AAPV-AMC in plasma); assay type: biochemical; conditions: mouse plasma; MutF 400 nM; A2M:MutF 1:2; FIG. 3C
Description: Plasma Protection Assay. MutF (400 nM) was mixed with 200 nM A2M to reach a 1:2 molar ratio (A2M:MutF), followed by 30 minutes incubation at 37° C. in PBS. A plasma protection assay was performed in 384-black well-coated plate by adding 10 μL of sample with either 10 μL of PBS or 10 μL of mouse plasma samples in duplicates. 20 μL of the substrate AAPV-AMC at a concentration of 100 μM was added. Kinetics were measured on Varioskan LUX: 380 nm ex/460 nm (5 nm bandwidth), 37° C., top, 100 msec, 2 min for 16 reads. Vo was calculated as activity measurement.

Human fibrinogen = target: T1, Human fibrinogen (Homo sapiens, UniProt P02671+P02675+P02679); test: Fibrinogen cleavage assay; assay type: biochemical; conditions: 1 hr at 37° C.; Western Blot; FIG. 6B
T1 construct: purchased Sigma
T1 sequence (P02671 20-629 limits assumed): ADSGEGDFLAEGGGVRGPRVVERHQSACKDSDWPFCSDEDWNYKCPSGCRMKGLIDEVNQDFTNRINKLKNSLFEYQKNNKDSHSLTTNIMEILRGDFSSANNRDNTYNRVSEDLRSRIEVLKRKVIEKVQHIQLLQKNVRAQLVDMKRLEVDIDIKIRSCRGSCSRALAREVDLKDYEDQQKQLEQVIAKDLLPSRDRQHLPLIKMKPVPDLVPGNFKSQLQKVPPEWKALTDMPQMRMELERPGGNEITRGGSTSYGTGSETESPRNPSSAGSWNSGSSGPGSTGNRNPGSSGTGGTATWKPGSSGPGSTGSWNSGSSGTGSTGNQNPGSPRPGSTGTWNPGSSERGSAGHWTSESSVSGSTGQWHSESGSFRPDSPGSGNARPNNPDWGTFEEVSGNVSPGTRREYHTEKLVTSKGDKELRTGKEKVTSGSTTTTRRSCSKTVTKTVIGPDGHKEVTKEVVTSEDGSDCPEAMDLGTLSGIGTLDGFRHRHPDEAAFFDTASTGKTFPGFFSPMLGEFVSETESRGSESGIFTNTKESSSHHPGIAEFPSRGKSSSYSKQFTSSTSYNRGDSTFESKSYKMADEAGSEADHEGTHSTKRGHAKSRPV
T1 sequence (P02675 31-491): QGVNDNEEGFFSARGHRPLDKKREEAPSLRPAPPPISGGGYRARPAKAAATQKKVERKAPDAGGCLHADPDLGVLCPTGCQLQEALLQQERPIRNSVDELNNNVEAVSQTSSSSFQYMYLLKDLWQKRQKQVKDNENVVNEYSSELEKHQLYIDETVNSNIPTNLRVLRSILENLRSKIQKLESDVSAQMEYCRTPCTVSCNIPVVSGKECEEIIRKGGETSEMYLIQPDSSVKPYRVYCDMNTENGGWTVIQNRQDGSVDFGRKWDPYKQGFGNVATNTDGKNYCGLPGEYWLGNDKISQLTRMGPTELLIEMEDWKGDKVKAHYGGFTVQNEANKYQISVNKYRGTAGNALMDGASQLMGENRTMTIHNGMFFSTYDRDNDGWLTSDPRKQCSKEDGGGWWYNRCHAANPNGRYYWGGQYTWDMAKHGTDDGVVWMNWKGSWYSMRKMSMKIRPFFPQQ
T1 sequence (P02679 27-453): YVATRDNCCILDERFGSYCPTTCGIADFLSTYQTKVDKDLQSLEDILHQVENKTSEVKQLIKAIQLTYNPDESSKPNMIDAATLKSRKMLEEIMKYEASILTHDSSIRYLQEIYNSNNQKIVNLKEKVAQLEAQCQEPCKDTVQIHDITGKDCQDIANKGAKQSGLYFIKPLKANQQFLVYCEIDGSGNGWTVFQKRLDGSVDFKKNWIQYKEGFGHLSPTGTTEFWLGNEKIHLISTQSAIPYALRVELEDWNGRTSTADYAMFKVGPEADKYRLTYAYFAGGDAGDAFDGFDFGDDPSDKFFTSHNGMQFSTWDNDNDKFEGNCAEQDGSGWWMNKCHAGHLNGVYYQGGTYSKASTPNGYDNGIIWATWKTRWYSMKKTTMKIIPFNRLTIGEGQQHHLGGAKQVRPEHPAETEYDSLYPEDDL
Description: Fibrinogen cleavage assay. MutF was mixed with different concentrations of A2M to reach various molar ratios, followed by a 30-minute incubation at 37° C. in PBS. Human fibrinogen (Sigma) was incubated with pre-mixed A2M:MutF protein complexes at different molar ratios for 1 hr at 37° C. Samples containing 5 ug of fibrinogen were loaded on 4-15% gel and fibrinogen was detected by Western Blot with an anti-fibrinogen (cell signaling Technology). Gels were imaged by iBright 1500.

Elastin-F = test: Elastin cleavage assay; assay type: biochemical; conditions: overnight at 37° C.; FIG. 6C
Description: Elastin cleavage assay. MutF was mixed with different concentrations of A2M to reach various molar ratios, followed by a 30-minute incubation at 37° C. in PBS. Elastin-F (1:100) was incubated with pre-mixed A2M:MutF protein complexes overnight at 37° C., and the degraded fluorescent signal was measured in the supernatant.

[3] = Coagulation Assay (PT, PTT, fibrinogen in plasma after IV injection); assay type: in vivo, Mice; conditions: mouse plasma 5 min after IV injection of 480 ug
Description: Coagulation Assay. Mice were injected with 200 μL of 480 ug of MutF or purified A2M:MutF protein complexes at a 1:2 molar ratio. Blood was collected in sodium citrate tubes and centrifuged at 1500×g for 15 minutes. 300 μl of plasma were frozen and shipped to IDEXX to be analyzed for Prothrombin time, Partial Thromboplastin time, and concentration of Fibrinogen.

| Fibrinogen cleavage (Human fibrinogen) | Compound | Killing of cancer cells from chemo-naïve vs chemo-treated patients [1] | MutF activity in plasma [2] | Elastin cleavage (fluorescent signal) (Elastin-F) | Prothrombin time ([3]; FIG. 7A) | Partial Thromboplastin time ([3]; FIG. 7B) | Concentration of fibrinogen in plasma ([3]; FIG. 7C) |
| --- | --- | --- | --- | --- | --- | --- | --- |
|  | COc1cccc2c1C(=O)c1c(O)c3c(c(O)c1C2=O)C[C@@](O)(C(=O)CO)C[C@@H]3O[C@H]1C[C@H](N)[C@H](O)[C@H](C)O1 [doxorubicin, reference compound] | reduced killing of cancer cells isolated from chemo-treated relative to chemo-naïve patients |  |  |  |  |  |
|  | O=C1[O][Pt]2([NH][C@@H]3CCCC[C@H]3[NH]2)[O]C1=O [oxaliplatin, reference compound] | reduced killing of cancer cells isolated from chemo-treated relative to chemo-naïve patients |  |  |  |  |  |
| does cleave fibrinogen | MutF: porcine pancreatic elastase (PPE) protein 'Mutant F', Q211F, SEQ ID NO: 5 |  | plasma inhibits MutF activity | does cleave elastin | increases PT and PTT times | increases PT and PTT times | causes reductions in fibrinogen levels |
